Assay results as given in ChEMBL document CHEMBL1201862, “PubChem BioAssay data set” (2004).
Active and inactive are the calls of the source.

Assays:
[1] = target: Glycogen synthase kinase-3 alpha (Homo sapiens, UniProt P49840); assay: Inhibition of Human GSK-3 alpha Activity Measured in Biochemical System Using Microfluidics - 2063-06_Inhibitor_Dose_DryPowder_Activity_Set2. [Related pubchem assays (depositor defined):AID2709]
[2] = target: Glycogen synthase kinase-3 beta (Homo sapiens, UniProt P49841); assay: Inhibition of Human GSK-3 beta Activity Measured in Biochemical System Using Microfluidics - 2063-05_Inhibitor_Dose_DryPowder_Activity_Set2. [Related pubchem assays (depositor defined):AID2709]
[3] = target: T1, Microphthalmia-associated transcription factor (Homo sapiens, UniProt O75030); assay: reducers of TRPM1 reporter luminescence, concentration series – cell-based, SK-MEL-5, cherry-picked, set 3, MITF inhibitor project, dose response (AID 493073); type: functional;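 note: SK-MEL-5 melanoma cells with luciferase driven by the MITF target TRPM1 promoter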
T1 sequence (O75030 whole entry): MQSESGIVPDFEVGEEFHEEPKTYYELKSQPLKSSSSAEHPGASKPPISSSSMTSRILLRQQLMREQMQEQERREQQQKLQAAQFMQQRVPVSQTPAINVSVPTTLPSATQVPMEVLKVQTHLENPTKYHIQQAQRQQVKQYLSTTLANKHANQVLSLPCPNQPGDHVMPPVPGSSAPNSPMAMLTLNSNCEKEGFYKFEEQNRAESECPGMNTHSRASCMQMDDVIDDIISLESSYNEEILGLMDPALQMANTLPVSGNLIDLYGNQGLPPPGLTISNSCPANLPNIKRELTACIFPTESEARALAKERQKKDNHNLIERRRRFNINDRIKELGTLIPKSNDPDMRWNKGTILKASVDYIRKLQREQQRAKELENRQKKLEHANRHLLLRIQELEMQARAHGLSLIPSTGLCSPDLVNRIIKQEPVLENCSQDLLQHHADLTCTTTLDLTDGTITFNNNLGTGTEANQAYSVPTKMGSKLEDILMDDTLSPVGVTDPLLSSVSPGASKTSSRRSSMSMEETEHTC

[4] = target: Heat shock protein HSP 90-alpha (Homo sapiens, UniProt P07900); type: functional, organism-based
Beta Lactamase = Beta Lactamase (Pseudomonas aeruginosa, UniProt Q932Y6); assay: BLA reporter interference, concentration series – BLA reporter cells, FRET fluorescence, artefact control for TLR9-MyD88 binding inhibitor project, dose response (AID 588341); type: cell-based;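 note: cell based assay in CHO-K1 cells stably expressing beta-lactamase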
CHO = CHO cell viability loss, potency – luminescence, cytotoxicity control for TLR9-MyD88 binding inhibitor project, dose response (AID 588339); type: functional, cell-based, hamster; settings: Cricetulus griseus;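 note: CHO cells stably coexpressing TLR9 and MyD88 fusions from primary screen; compound exposure lasted 48 hours before viability readout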
[5] = target: Latent membrane protein 1 (Human herpesvirus 4 (strain B95-8), UniProt P03230); assay: LMP1 TES1 pathway selectivity over dsRED control – imaging, HEK293T, dual-color eGFP/dsRED, cherry-picks, selectivity assay for LMP1 NF-kB inhibitor project, dose response (AID 588398); type: functional, cell-based
INS1 [6] = assay: INS-1E mitochondrial potential loss inhibitors – cell-based, JC-1 fluorescence, dry powder, set 2, dose response (AID 488867); type: functional; settings: Rattus norvegicus
INS1 [7] = assay: beta-cell survival under cytokine stress – INS-1E, ATP luminescence, dry powder, dose response (AID 488844); type: functional, cell-based; settings: Rattus norvegicus
INS1 [8] = assay: suppression of NO production in INS-1E cells – cell-based, Griess absorbance, dry powder, set 2, dose response (AID 488868); type: functional; settings: Rattus norvegicus

Sequence of Glycogen synthase kinase-3 beta (P49841 whole entry): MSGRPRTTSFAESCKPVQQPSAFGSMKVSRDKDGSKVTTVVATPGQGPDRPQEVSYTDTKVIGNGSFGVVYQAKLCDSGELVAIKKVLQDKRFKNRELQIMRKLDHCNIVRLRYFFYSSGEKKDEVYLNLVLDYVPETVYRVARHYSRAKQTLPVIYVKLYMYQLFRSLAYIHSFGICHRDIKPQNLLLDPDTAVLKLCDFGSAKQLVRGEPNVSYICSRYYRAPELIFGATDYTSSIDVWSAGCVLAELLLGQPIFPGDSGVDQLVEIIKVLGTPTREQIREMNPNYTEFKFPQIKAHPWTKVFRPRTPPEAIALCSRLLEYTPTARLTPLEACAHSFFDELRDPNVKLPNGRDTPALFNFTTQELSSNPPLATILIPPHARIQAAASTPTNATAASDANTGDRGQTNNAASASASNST
Sequence of Beta Lactamase (Q932Y6 whole entry, the tested form may be a part): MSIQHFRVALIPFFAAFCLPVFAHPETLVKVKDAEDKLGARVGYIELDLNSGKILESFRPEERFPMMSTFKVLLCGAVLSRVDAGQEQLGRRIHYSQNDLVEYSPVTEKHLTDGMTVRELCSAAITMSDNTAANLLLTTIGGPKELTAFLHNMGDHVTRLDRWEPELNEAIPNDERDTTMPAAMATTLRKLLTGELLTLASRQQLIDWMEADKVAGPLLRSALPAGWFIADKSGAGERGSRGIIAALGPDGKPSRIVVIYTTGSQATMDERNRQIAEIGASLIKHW
Sequence of Glycogen synthase kinase-3 alpha (P49840 whole entry): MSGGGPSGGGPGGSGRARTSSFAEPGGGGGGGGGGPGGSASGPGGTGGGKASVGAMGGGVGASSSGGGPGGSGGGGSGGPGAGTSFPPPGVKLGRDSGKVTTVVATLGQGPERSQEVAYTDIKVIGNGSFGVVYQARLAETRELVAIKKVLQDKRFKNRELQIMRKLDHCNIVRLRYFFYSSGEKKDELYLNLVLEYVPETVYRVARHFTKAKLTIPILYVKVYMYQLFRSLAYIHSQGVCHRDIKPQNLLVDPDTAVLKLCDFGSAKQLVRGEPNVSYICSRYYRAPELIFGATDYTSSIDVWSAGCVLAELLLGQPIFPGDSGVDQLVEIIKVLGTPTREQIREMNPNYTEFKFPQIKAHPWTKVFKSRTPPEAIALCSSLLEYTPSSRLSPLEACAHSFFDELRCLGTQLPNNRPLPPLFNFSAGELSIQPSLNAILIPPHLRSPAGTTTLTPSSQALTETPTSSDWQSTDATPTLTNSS
Sequence of Latent membrane protein 1 (P03230 whole entry): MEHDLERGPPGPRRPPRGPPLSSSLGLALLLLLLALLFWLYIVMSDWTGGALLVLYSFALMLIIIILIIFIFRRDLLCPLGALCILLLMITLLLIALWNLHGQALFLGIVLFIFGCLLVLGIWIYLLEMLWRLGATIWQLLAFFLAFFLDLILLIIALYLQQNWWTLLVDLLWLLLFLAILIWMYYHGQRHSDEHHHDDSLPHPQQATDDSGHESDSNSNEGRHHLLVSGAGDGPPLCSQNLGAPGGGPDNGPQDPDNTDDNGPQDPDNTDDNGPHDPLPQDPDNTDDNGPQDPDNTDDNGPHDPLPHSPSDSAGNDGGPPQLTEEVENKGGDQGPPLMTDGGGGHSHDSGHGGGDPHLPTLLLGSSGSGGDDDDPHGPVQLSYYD

## Nc1nonc1-n1nnc(C(=O)N/N=C/c2ccccc2Cl)c1CN1CCOCC1
[1]
  AC50: 5.64 µM (active)
[2]
  AC50: 2 µM (active)

## O=C(c1ccccc1)c1cc(Cl)ccc1N1C(=O)C=CC1=O
[3]
  AC50: 11.9 µM (active)
[4]
  AC50: 0.552 µM (active)
Beta Lactamase
  IC50: 14.7 µM (inactive)
CHO
  IC50: 2.26 µM (active)

## OCCN(CCO)CC(O)COCCC12CC3CC(CC(C3)C1)C2 (stereo not given)
[5]
  AC50: 77.6 µM (active)

## COc1ccc(S(=O)(=O)N(C)C[C@@H]2Oc3c(NC(=O)Nc4cccc5ccccc45)cccc3C(=O)N([C@H](C)CO)C[C@H]2C)cc1
INS1 [6]
  AC50: > 235 µM (inactive)
INS1 [7]
  AC50: 18.4 µM (active)
INS1 [8]
  AC50: 74.5 µM (active)
